Laboratory results published in patent US10780094B2, “Use of carbonic anhydrase inhibitors for treatment of neurological and psychiatric disorders” (New York University, priority 2016, dated 2020).

Experiments:
[1] = test system: mitochondria isolated from ECs (D3 cells); assay: Mitochondrial H2O2 production (Amplex Red) after Aβ challenge; assay type: cell-based, human; details: ATZ at lower concentrations than MTZ
Description: Cells were plated on 6-wells plates and treated with the peptides and/or drugs for the experimental times. Plates were centrifuged for 10 min at 1.000 RPM and washed twice with PBS 1×. After that, 500 μL of homogenization buffer (75 mM sucrose, 225 mM mannitol, 5 mM Tris-HCl pH=7.4, 1 mM PMSF and protease inhibitor cocktail) was added. Cells were scraped in this buffer, collected in glass tubes and grinded exactly 80 times with a pellet pestle, keeping everything always on ice. Cells were then centrifuged at 2.800 RPM for 5 min at 4° C. The supernatant was collected and centrifuged again at 2.800 RPM for 5 min at 4° C. The supernatant was again collected and centrifuged at 10.500 RPM for another 5 min at 4° C. After this, the supernatant was discarded and the pellet was re-suspended in 100 μL of homogenization buffer. The samples were centrifuged again at 10.500 RPM for 10 min at 4° C., the supernatant was discarded and the pellets (mitochondrial fractions) were re-suspended on 50 μL of homogenization buffer. […] After that, mitochondrial fractions containing equal amounts of mitochondrial proteins were placed on 96-wells microplate absorbance microtiter (ThermoFisher, Waltham, Mass., US) and the AmplexRed assay was ran, following the instructions provided by the manufacturer. Absorbance was measured by using a FlexStation (Molecular Devices, Sunnyvalem Calif., US).

Aβ42 and Aβ40-Q22 [2] = target: T1, Aβ42 and Aβ40-Q22 (Homo sapiens, UniProt P05067, E693Q); assay: Thioflavin T binding assay of Aβ aggregation; details: 100 or 300 μM MTZ; aggregation up to 3 days
T1 construct: purchased James I. Elliott at Yale University (custom chemical peptide synthesis)
Description: Binding of the different Aβ peptides to Thioflavin-T was monitored by fluorescence evaluation, as described (Fossati et al., 2010; Walsh et al., 1999). Briefly, after peptide aggregation at 50 μM concentration in culture media in the presence or absence of MTZ, 6 μl aliquots from each of the time-points were added to 184 μl of 50 mM Tris-HCl buffer, pH 8.5, and 10 μl of 0.1 mM Thioflavin-T (Sigma). Fluorescence was recorded for 300 s in a LS-50B luminescence spectrometer (Perkin Elmer, Waltham, Mass.) with excitation and emission wavelengths of 435 and 490 nm (slit width 10 nm), respectively, as described (Solito et al., 2009; Viana et al., 2009).

SH-SY5Y cells = assay: Cellular ROS (CellROX, DCFDA); assay type: cell-based, human; details: Aβ42 in the presence or absence of MTZ; 24 hours
Description: (§1) For the last 30 minutes, the cells were incubated in the experimental medium at 37° C. with 5 μM CellROX Deep Red (Life Technologies) and 1 μg/ml Hoechst Stain (Immunochemistry Technologies, Bloomington, Minn.), as described by the manufacturer, followed by washes. Fluorescence was measured using a FlexStation 3 Multi-Mode Microplate Reader (Molecular Devices, Sunnyvale, Calif.).
10.000 cells of either SH-SY5Y or D3 cells were plated on 96-wells plates. The day after, cells were treated with the peptides and/or the drugs for the established experimental times. CellROX reagent was then added, directly, to the growing media, at a final concentration of 5 μM. 10 μg/mL of Hoescht 333258 was also added to the medium containing the CellROX reagent, in order to dye cell nuclei. Cells were incubated with both CellROX and Hoescht 333258, at 37° C., for 30 min., just before the ending time-point of the treatment. After 30 min., the medium was removed and cells were washed once in PBS 1× at room temperature. […]
Cells were plated on 96-wells microplate fluorescence microtiter (ThermoFisher, Waltham, Mass., US), and treated with peptides and/or drugs on phenol red free medium, with no serum in the case of the SH-SY5Y cells and 1% serum on the D3. […] Fluorescence was measured using a FlexStation (Molecular devices, Sunnyvalem Calif., US).

Aβ42 and Aβ40-Q22 [3] = target: T1, Aβ42 and Aβ40-Q22; assay: Native gel electrophoresis and Western blot of Aβ aggregation species; details: presence or absence of the CAI; 1 hour, 1 day, 3 days
Description: Electrophoretic analysis for assessment of peptide aggregation in the presence or absence of MTZ was performed under native conditions using 5-30% gradient polyacrylamide gels, in absence of SDS, using 25 mM Tris/glycine, pH 8.8, as running buffer, as previously described (Fossati et al., 2010). Aβ oligomerization patterns were visualized by subsequent WB analysis. Briefly, proteins were electrotransferred to nitrocellulose membranes ([…] pore size; Hybond-ECL, GE Healthcare Life Sciences, Piscataway, N.J.) at 400 mA for 2.5 h, using 10 mM 3-cyclohexylamino-1-propanesulfonic acid (CAPS; Sigma) buffer, pH 11.0, containing 10% (v/v) methanol. After blocking with 5% nonfat milk in TBS containing 0.1% Tween 20 (TBST), membranes were immunoreacted with a combination of mouse monoclonal anti-Aβ antibodies 4G8 (epitope: residues Aβ18-22) and 6E10 (epitope: residues Aβ3-8), both from Covance (Princeton, N.J.), at 1:3000 dilution each, followed by HRP-labeled anti-mouse IgG and ECL chemistry (Fossati et al., 2010).

Glioma cells = assay: Cellular ROS (CellROX); assay type: cell-based, human; details: Aβ42 in the presence or absence of MTZ; 24 hours
Description: as §1

Structure (SMILES)	inhibition of H2O2 production, compared with MTZ [1]	Aβ fibrillization by Thioflavin T fluorescence (Aβ42 and Aβ40-Q22 [2])	levels of cellular ROS (CellROX) (SH-SY5Y cells)	Aβ aggregation species in native gels (Aβ42 and Aβ40-Q22 [3])	levels of cellular ROS (CellROX) (Glioma cells)
CC(=O)Nc1nnc(S(N)(=O)=O)s1 [ATZ, acetazolamide]	more dramatic effect on the inhibition of H2O2 production				
CC(=O)/N=c1/sc(S(N)(=O)=O)nn1C [MTZ, methazolamide]		no significant difference in fibrillization	did not significantly change	did not differ	did not significantly change
